System: Rabbit Heart
Experiment: Imaging of rabbit heart (scintillation camera, intravenous injection)
Format: in vivo
Details: 2 mCi i.v., 2.5 Kg male New Zealand Albino rabbit, approximately 10 minutes after injection
Method: 2 mCi of Thallium-201 (as thallous chloride in physiological saline containing 0.9% benzyl alcohol) is injected intravenously into a 2.5 Kg male New Zealand Albino rabbit. The rabbit is positioned under a Searle Pho-Gamma scintillation camera in such a way that the heart and lung area are covered by the field of view.
Greater than 1 mCi of the ^99m Tc-labelled product of Example 3 is injected into a rabbit and imaged as in Example 16.

Substance: Thallium-201
- image of the heart (reference Tl-201): sufficient counts are accumulated to produce an image of the heart analogous to that seen in clinical studies of humans

— US4451450A, “Cationic compounds useful for making radiodiagnostic agents” (New England Nuclear Corporation, priority 1981, dated 1984)
